Assay results reported in ChEMBL document CHEMBL5137115, “Insights into the Metabolomic Capacity of Podaxis and Isolation of Podaxisterols A-D, Ergosterol Derivatives Carrying Nitrosyl Cyanide-Derived Modifications” (J Nat Prod, 2022).
Activity calls are given as the source filed them.

Key:
Assay type in all cases: functional, organism-based
[1] = test system: Bacillus subtilis; experiment: Antimicrobial activity against Bacillus subtilis 6633 assessed as inhibition zone at 0.5 mg/ml by […]
[2] = test system: Enterococcus faecalis; experiment: Antimicrobial activity against Enterococcus faecalis 1528 assessed as inhibition zone at 0.5 mg/ml by […]
[3] = test system: Staphylococcus aureus; experiment: Antimicrobial activity against Staphylococcus aureus SG511 assessed as inhibition zone at 0.5 mg/ml by […]
[4] = test system: Mycolicibacterium vaccae; experiment: Antimicrobial activity against Mycobacterium vaccae 10670 assessed as inhibition zone at 0.5 mg/ml by […]
[5] = test system: Staphylococcus aureus; experiment: Antimicrobial activity against Staphylococcus aureus 134/94 assessed as inhibition zone at 0.5 mg/ml by […]

Measured: Activity

CC(C)[C@@H](C)/C=C/[C@@H](C)[C@H]1CC[C@H]2C3=CC=C4C[C@@H](O)CC[C@]4(C)[C@H]3CC[C@]12C
active: all assays above
